Measured values published in US10519323B2, “Antimicrobial coatings” (AGENCY FOR SCIENCE, TECHNOLOGY AND RESEARCH, priority 2015, dated 2019).
≈ marks a conversion by molar mass, not a printed value.

Key:
S. aureus = experiment: Minimal inhibitory concentration (MIC) of powders against S. aureus; type: cell-based, Staphylococcus aureus; conditions: * = tested chemical formed precipitate in TSB medium
Method: (§1) The minimal inhibitory concentration (MIC) of ZIF-L powders synthesized from a solution with a 2-Me-Im:Zn ratio of 7:1 was tested against E. coli, S. aureus and C. albicans. The same test was conducted for ZIF-8 powders, 2-Me-Im alone and Zn(NO3)2.4H2O alone. The MIC values in mg/mL are tabulated below.

C. albicans = experiment: Minimal inhibitory concentration (MIC) of powders against C. albicans; type: cell-based, Candida albicans
Method: as §1

E. coli = experiment: Minimal inhibitory concentration (MIC) of powders against E. coli; type: cell-based, Escherichia coli; conditions: * = tested chemical formed precipitate in TSB medium
Method: as §1

MIC (S. aureus; Staphylococcus aureus) [mg/mL]	MIC (C. albicans; Candida albicans) [µg/mL]	MIC (E. coli; Escherichia coli) [mg/mL]	SMILES	MIC, S. aureus (S. aureus)	MIC, C. albicans (C. albicans) [mg/mL]	MIC, E. coli (E. coli)
25 (≈ 304 mM)	6200 (≈ 75.5 mM)	12.5 (≈ 152 mM)	Cc1ncc[nH]1 [2-Me-Im, 2-methylimidazole]			
			O.O.O.O.O=[N+]([O-])[O-].O=[N+]([O-])[O-].[Zn+2] [Zn(NO3)2•4H2O, Zn(NO3)2.4H2O]	>50* mg/mL	0.8	3.1* mg/mL
